Like-named read-outs stand apart in the source and are kept apart here. Starred links: 1 amine or outer side, 2 acyl side, 3 side chain; linkers in the order of their positions; H or OH if unused. Positions of bridges follow the written chain, without caps; N, C: chain ends. Non-standard residues stand in square brackets, D forms with d. Groups on a side chain read outwards from the residue. Chains are numbered I, II in the order given. No end group written: not given here. *: point of attachment. C20 diacid = O=C(O)CCCCCCCCCCCCCCCCCCC(=O)*; C18 diacid = O=C(O)CCCCCCCCCCCCCCCCC(=O)*; γGlu = O=C(O)[C@H](CCC(=O)[*:2])N[*:1]; εLys = N[C@@H](CCCCN[*:1])C(=O)[*:2]; AEEA = NCCOCCOCC(=O)O; Aib = CC(C)(N)C(=O)O
Key:
Type in all cases: cell-based
Conditions in all cases: CreLuc reporter gene assay
hGLP1R = molecular target: T1, hGLP1R (Homo sapiens, UniProt P43220); assay: hGLP1R CreLuc reporter gene assay in 0.5% and 100% plasma
T1 construct: expressed in transfected cells; host or cells: HEK-293 cells carrying a CRE-luciferase reporter gene
Outline: (§1)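 HEK cells (GLP-1R, NPY2R) or CHO cells (GIPR) carrying a CRE-luciferase reporter, incubated 4 h at 37 °C with peptides in HBSS/20 mM HEPES pH 7.4 plus 0.5% human plasma, or in 100% plasma. Luminescence read; EC50 from 8-point variable-slope sigmoid fits.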

hNPY2R = molecular target: T2, hNPY2R (Homo sapiens, UniProt P49146); assay: hNPY2R CreLuc reporter gene assay in 0.5% and 100% plasma
T2 construct: expressed in transfected cells; host or cells: HEK-293 cells carrying a CRE-luciferase reporter gene
T2 sequence (P49146 1-381): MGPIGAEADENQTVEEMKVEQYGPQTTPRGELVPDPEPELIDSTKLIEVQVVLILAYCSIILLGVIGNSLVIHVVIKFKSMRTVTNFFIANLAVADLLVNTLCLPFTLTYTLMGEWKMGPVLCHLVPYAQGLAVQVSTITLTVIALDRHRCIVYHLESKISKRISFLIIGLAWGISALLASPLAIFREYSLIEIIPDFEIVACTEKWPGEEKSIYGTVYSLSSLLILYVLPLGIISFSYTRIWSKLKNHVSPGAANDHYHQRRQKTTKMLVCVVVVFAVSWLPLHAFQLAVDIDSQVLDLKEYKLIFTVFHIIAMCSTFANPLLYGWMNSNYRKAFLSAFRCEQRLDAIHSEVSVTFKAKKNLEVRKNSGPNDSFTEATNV
Outline: as §1

hGIPR = molecular target: T3, hGIPR (Homo sapiens, UniProt P48546); assay: hGIPR CreLuc reporter gene assay in 0.5% and 100% plasma
T3 construct: expressed in transfected cells; host or cells: CHO cells carrying a CRE-luciferase reporter gene
T3 sequence (P48546 22-466): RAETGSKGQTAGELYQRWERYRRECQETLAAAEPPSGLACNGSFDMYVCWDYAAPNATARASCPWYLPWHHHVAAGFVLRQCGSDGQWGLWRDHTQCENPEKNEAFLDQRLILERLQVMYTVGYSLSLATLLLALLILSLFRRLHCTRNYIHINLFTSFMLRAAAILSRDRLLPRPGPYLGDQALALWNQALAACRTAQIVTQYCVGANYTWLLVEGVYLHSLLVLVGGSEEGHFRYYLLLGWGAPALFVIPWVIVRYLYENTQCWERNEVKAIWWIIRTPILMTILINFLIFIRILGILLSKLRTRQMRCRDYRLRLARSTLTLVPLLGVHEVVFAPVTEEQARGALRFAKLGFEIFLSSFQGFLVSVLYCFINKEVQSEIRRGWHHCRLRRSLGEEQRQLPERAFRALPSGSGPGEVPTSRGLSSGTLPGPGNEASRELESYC
Outline: as §1

[1] = 0.5% human plasma, read-out: hGLP1R 0.5% hP
[2] = 0.5% human plasma, read-out: hNPY2R 0.5% hP
[3] = 0.5% human plasma, read-out: hGIPR 0.5% hP
[4] = 100% human plasma, read-out: hNPY2R 100% hP
[5] = 100% human plasma, read-out: hGIPR 100% hP

T1 sequence (P43220 24-463): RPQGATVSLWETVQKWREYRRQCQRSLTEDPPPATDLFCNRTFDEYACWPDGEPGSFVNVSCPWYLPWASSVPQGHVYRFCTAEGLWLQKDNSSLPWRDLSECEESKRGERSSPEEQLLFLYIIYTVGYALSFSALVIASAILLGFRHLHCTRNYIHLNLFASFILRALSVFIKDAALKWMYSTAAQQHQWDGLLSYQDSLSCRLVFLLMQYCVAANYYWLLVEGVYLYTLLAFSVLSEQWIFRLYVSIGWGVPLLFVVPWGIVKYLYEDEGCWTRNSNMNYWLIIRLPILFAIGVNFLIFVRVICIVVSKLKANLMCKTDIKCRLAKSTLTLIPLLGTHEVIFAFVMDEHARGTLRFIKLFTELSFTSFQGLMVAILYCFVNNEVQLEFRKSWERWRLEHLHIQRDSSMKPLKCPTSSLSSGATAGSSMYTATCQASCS

Row | Substance | EC50 (hGLP1R; [1]) [nM] | EC50 (hNPY2R; [2]) [nM] | EC50 (hGIPR; [3]) [nM] | EC50 (hNPY2R; [4]) [nM] | EC50 (hGIPR; [5]) [nM] | EC50 (hGLP1R; 100% human plasma, read-out: hGLP1R 100% hP) [nM]
1 | H-Y[Aib]EGTFTSDYSI[Aib]LEKQAQ[Aib]AFVQWLIK([AEEA-AEEA-Glu-Glu-Glu-Glu-C18 diacid])GGPEEGASLRHYYNWLTRQRY-NH2 [Compound 177, Y-Aib-E-G-T-F-T-S-D-Y-S-I-Aib-L-E-K-Q-A-Q-Aib-A-F-V-Q-W-L-I-K(1,3)-GGPEEGASLRHYYNWLTRQRY-NH2.C18DA-E-E-E-E-OEG-OEG(1,2)] | 0.16 | 18.7 | 0.28 | 115 |  | 
2 | H-Y[Aib]EGTFTSDYSI[Aib]LEKQAE[Aib]AFVQWLIK([εLys-γGlu-γGlu-γGlu-γGlu-γGlu-C18 diacid])GGPSEGASLRHYYNWLTRQRY-NH2 [Compound 138, Y-Aib-E-G-T-F-T-S-D-Y-S-I-Aib-L-E-K-Q-A-E-Aib-A-F-V-Q-W-L-I-K(1,3)-GGPSEGASLRHYYNWLTRQRY-NH2.C18DA-gGlu-gGlu-gGlu-gGlu-gGlu-eLys(1,2)] | 0.19 | 18.3 | 0.13 |  | 0.81 | 
3 | H-Y[Aib]EGTFTSDYSI[Aib]LEKQAQ[Aib]AFVEWLIK([εLys-γGlu-γGlu-γGlu-γGlu-γGlu-γGlu-C20 diacid])GGPSTGASLRHYYNWLTRQRY-NH2 [Compound 244, Y-Aib-E-G-T-F-T-S-D-Y-S-I-Aib-L-E-K-Q-A-Q-Aib-A-F-V-E-W-L-I-K(1,3)-GGPSTGASLRHYYNWLTRQRY-NH2.C20DA-gGlu-gGlu-gGlu-gGlu-gGlu-gGlu-eLys(1,2)] | 0.19 | 13.5 | 0.32 |  |  | 
4 | H-Y[Aib]EGTFTSDYSI[Aib]LDKQAQ[Aib]AFVEWLIK([εLys-γGlu-γGlu-γGlu-γGlu-γGlu-γGlu-C20 diacid])GGPSSGASLRHYYNWLTRQRY-NH2 [Compound 128, Y-Aib-E-G-T-F-T-S-D-Y-S-I-Aib-L-D-K-Q-A-Q-Aib-A-F-V-E-W-L-I-K(1,3)-GGPSSGASLRHYYNWLTRQRY-NH2.C20DA-gGlu-gGlu-gGlu-gGlu-gGlu-gGlu-eLys(1,2)] | 0.4 | 24.8 | 0.11 |  |  | 
5 | I: Y[Aib]EGTFTSDYSI[Aib]LEKQAQ[Aib]AFVQWLIKGGPSEGASLRHYYNWLTRQRY-NH2 / II: {C20 diacid}-EEEEE[εLys] (amide I:28-II:C) [Compound 240, Y-Aib-E-G-T-F-T-S-D-Y-S-I-Aib-L-E-K-Q-A-Q-Aib-A-F-V-Q-W-L-I-K(1,3)-GGPSEGASLRHYYNWLTRQRY-NH2.C20DA-E-E-E-E-E-eLys(1,2)] | 0.14 | 10.7 | 0.33 |  | 1.97 | 6.74

These reach a lower EC50 (hGLP1R; [1]). Values come first.

Row | EC50 (hGLP1R; [1]) [nM] | EC50 (hNPY2R; [2]) [nM] | EC50 (hGIPR; [3]) [nM] | EC50 (hNPY2R; [4]) [nM] | EC50 (hGIPR; [5]) [nM] | EC50 (hGLP1R; 100% human plasma, read-out: hGLP1R 100% hP) [nM] | Substance
6 | 0.13 | 19.9 | 0.16 |  |  |  | H-Y[Aib]EGTFTSDYSI[Aib]LEKQAQ[Aib]AFVEWLIK([γGlu-γGlu-γGlu-γGlu-γGlu-C18 diacid])GGPSEGASLRHYYNWLTRQRY-NH2 [Compound 292, Y-Aib-E-G-T-F-T-S-D-Y-S-I-Aib-L-E-K-Q-A-Q-Aib-A-F-V-E-W-L-I-K(1,3)-GGPSEGASLRHYYNWLTRQRY-NH2.C18DA-gGlu-gGlu-gGlu-gGlu-gGlu(1,2)]
7 | 0.12 | 12.5 | 0.07 | 36.8 | 1.25 |  | H-Y[Aib]EGTFTSDYSI[Aib]LEKQAQ[Aib]AFVEWLIK([εLys-γGlu-γGlu-γGlu-γGlu-γGlu-γGlu-C20 diacid])GGPSSGES[Aib]RHYYNWLTRQRY-NH2 [Compound 49, Y-Aib-E-G-T-F-T-S-D-Y-S-I-Aib-L-E-K-Q-A-Q-Aib-A-F-V-E-W-L-I-K(1,3)-G-G-P-S-S-G-E-S-Aib-R-H-Y-Y-N-W-L-T-R-Q-R-Y-NH2.C20DA-gGlu-gGlu-gGlu-gGlu-gGlu-gGlu-eLys(1,2)]

— patent US20240247080A1, “GLP1/GIP/NPY2 RECEPTOR TRIPLE AGONISTS” (Boehringer Ingelheim International GmbH, priority 2022, published 2024)
